These results are taken from ChEMBL document CHEMBL1130119, “2-Carbomethoxy-3-aryl-8-oxabicyclo[3.2.1]octanes: potent non-nitrogen inhibitors of monoamine transporters” (J Med Chem, 1997).

Experiment [1] deals with Monoamine transporters; serotonin & dopamine (Homo sapiens) (UniProt P31645+Q01959). The experiment is described as follows: Selectivity ratio measured as the IC50 ratio of DAT receptor to that of 5-HT transporter. The conditions noted are these: Cercopithecidae.
The target in experiment [2] is Sodium-dependent serotonin transporter (Homo sapiens, UniProt P31645). In words: Inhibition of [3H]citalopram binding to the serotonin transporter (5-HT) in monkey caudate-putamen. Format: tissue-based, Cercopithecidae. The conditions noted are these: target entry is the homologue from another species.

Molecules are shown by their SMILES. Bounds are passed on as bounds.

Chain of Sodium-dependent serotonin transporter (P31645 whole entry): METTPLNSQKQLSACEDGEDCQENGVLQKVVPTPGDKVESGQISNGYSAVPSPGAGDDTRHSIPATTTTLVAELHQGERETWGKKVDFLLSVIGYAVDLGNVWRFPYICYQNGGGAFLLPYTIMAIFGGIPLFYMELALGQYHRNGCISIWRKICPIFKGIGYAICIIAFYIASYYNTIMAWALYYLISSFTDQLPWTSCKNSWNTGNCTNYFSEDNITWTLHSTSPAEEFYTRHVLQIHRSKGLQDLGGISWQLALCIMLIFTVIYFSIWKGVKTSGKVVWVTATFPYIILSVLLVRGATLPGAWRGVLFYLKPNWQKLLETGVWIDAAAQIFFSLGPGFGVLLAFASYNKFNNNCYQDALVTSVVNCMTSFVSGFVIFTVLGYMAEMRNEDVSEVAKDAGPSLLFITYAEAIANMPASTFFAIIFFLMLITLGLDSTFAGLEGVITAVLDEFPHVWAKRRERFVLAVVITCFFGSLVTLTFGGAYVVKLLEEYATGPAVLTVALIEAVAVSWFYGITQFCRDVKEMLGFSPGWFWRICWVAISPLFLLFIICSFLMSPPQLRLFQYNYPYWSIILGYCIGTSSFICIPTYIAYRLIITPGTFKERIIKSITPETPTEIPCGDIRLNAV
Chain of Monoamine transporters; serotonin & dopamine (Homo sapiens) (P31645 whole entry, looked up): as the sequence (P31645 whole entry) above
Chain of Monoamine transporters; serotonin & dopamine (Homo sapiens) (Q01959 whole entry, looked up): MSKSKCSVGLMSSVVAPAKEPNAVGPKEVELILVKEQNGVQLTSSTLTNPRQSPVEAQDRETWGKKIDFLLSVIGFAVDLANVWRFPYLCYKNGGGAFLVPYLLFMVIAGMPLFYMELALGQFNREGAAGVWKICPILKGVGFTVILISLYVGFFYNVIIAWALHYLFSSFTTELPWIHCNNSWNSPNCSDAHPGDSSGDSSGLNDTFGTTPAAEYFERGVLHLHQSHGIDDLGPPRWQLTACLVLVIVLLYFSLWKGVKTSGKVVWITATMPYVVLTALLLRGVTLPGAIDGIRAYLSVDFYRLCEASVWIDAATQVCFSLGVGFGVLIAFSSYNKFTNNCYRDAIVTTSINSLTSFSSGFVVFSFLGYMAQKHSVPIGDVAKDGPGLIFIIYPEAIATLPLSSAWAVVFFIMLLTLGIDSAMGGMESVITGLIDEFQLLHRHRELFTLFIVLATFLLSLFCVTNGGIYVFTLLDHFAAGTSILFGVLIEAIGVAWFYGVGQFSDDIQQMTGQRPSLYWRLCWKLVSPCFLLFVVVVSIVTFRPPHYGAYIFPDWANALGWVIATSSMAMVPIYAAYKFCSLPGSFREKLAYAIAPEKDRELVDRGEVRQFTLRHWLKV

Take `COC(=O)C1C2CCC(CC1c1ccc(Cl)cc1)O2` (stereo in doubt; 7c (O-915)) [listing 1 of 2 here]: the Selectivity ratio in experiment [1] came to 29. Broadly, the IC50 is the concentration at which inhibition is half-maximal. With `COC(=O)C1C2CCC(CC1c1ccc(Cl)cc1)O2` (stereo in doubt; 7c (O-915)) [listing 2 of 2 here], in experiment [2], the IC50 is 816 nM. For the compound `COC(=O)C1C2CCC(CC1c1ccc(Cl)c(Cl)c1)O2` (stereo in doubt; 7f (O-913)) [listing 1 of 2 here], the IC50 in experiment [2] stood at 64.5 nM.

With `COC(=O)C1C2CCC(CC1c1ccc(Cl)cc1)O2` (stereo in doubt; 6c (O-916)) [listing 1 of 2 here], the Selectivity ratio in experiment [1] was 11. In experiment [2], `COC(=O)C1C2CCC(CC1c1ccc(Cl)c(Cl)c1)O2` (stereo in doubt; form 3) [listing 1 of 2 here] returned an IC50 of 31 nM. The same measure, in the same setting: in the case of `COC(=O)C1C(c2ccc(I)cc2)CC2CCC1N2C` (stereo in doubt; 8d) it was 4.21 nM.

Turning to `COC(=O)C1C2CCC(CC1c1ccc(Cl)c(Cl)c1)O2` (stereo in doubt; 7f (O-913)) [listing 2 of 2 here], in experiment [1], the Selectivity ratio came out at 21. Still for that read-out and setting: as for `COC(=O)C1C2CCC(CC1c1ccc(I)cc1)O2` (stereo in doubt) [listing 1 of 2 here], the figure is 1.7. As for `COC(=O)C1C2CCC(CC1c1ccc(Br)cc1)O2` (stereo in doubt; form 1) [listing 1 of 2 here], the IC50 in experiment [2] was 30 nM.

With `COC(=O)C1C2CCC(CC1c1ccccc1)O2` (stereo in doubt; 7a (O-905)) [listing 1 of 2 here], the Selectivity ratio in experiment [1] was found to be 6.

Regarding `COC(=O)C1C2CCC(CC1c1ccc(F)cc1)O2` (stereo in doubt; 6b (O-895)) [listing 1 of 2 here], the Selectivity ratio in experiment [1] came out at 5. Same read-out and setting: as for `COC(=O)C1C2CCC(CC1c1ccc(Cl)c(Cl)c1)O2` (stereo in doubt; form 2) [listing 1 of 2 here], the figure is 51. In turn, `COC(=O)C1C2CCC(CC1c1ccc(Br)cc1)O2` (stereo in doubt; form 2) [listing 1 of 2 here] came in with an IC50 in experiment [2] of 276 nM. Still for that read-out and setting: in the case of `COC(=O)C1C(c2ccc(I)cc2)CC2CCC1N2C` (stereo in doubt; 19d) it was 64.9 nM; in that of `COC(=O)C1C2CCC(CC1c1ccccc1)O2` (stereo in doubt; 6a (O-904)) [listing 1 of 2 here], over 10000 nM. With `COC(=O)C1C2CCC(CC1c1ccc(I)cc1)O2` (stereo in doubt; 7e (O-949)) [listing 1 of 2 here], in experiment [1], the Selectivity ratio came out at 2. As to `COC(=O)C1C2CCC(CC1c1ccc(Br)cc1)O2` (stereo in doubt; form 1) [listing 2 of 2 here], the Selectivity ratio in experiment [1] was 1.4. Compound `COC(=O)C1C(c2ccc(Cl)c(Cl)c2)CC2CCC1N2C` (stereo in doubt; form 1) displayed an IC50 in experiment [2] of 27 nM. On the same count and under the same terms, as for `COC(=O)C1C2CCC(CC1c1ccc(I)cc1)O2` (stereo in doubt) [listing 2 of 2 here], the figure is 12 nM; as for `COC(=O)C1C2CCC(CC1c1ccc(F)cc1)O2` (stereo in doubt; 7b (O-899)) [listing 1 of 2 here], over 10000 nM. As for `COC(=O)C1C2CCC(CC1c1ccccc1)O2` (stereo in doubt; 6a (O-904)) [listing 2 of 2 here], in experiment [1], the Selectivity ratio stood at 10. `COC(=O)C1C2CCC(CC1c1ccc(Cl)c(Cl)c1)O2` (stereo in doubt; form 4) [listing 1 of 2 here]: in experiment [1], the Selectivity ratio stood at 1.4. Turning to `COC(=O)C1C2CCC(CC1c1ccc(Cl)c(Cl)c1)O2` (stereo in doubt; form 3) [listing 2 of 2 here], in experiment [1], the Selectivity ratio stood at 13. In experiment [2], `COC(=O)[C@H]1[C@@H](c2ccc(F)cc2)C[C@H]2CC[C@H]1N2C` (stereo in doubt; 19b) came in with an IC50 of 5060 nM.

In experiment [2], `COC(=O)C1C2CCC(CC1c1ccccc1)O2` (stereo in doubt; 7a (O-905)) [listing 2 of 2 here] registered an IC50 of 11400 nM. Turning to `COC(=O)C1C2CCC(CC1c1ccc(Cl)c(Cl)c1)O2` (stereo in doubt; form 1) [listing 1 of 2 here], the Selectivity ratio in experiment [1] was determined as 1.2. `COC(=O)C1C2CCC(CC1c1ccc(Cl)cc1)O2` (stereo in doubt; 6c (O-916)) [listing 2 of 2 here] yielded an IC50 in experiment [2] of 107 nM. For `COC(=O)C1C2CCC(CC1c1ccc(F)cc1)O2` (stereo in doubt; 7b (O-899)) [listing 2 of 2 here], in experiment [1], the Selectivity ratio worked out at 10. As to `COC(=O)C1C2CCC(CC1c1ccc(Cl)c(Cl)c1)O2` (stereo in doubt; form 1) [listing 2 of 2 here], the IC50 in experiment [2] was determined as 58 nM. Compound `COC(=O)C1C2CCC(CC1c1ccc(Cl)c(Cl)c1)O2` (stereo in doubt; form 2) [listing 2 of 2 here] showed an IC50 in experiment [2] of 2860 nM. Regarding `COC(=O)C1C2CCC(CC1c1ccc(Cl)c(Cl)c1)O2` (stereo in doubt; 6f (O-914)) [listing 1 of 2 here], the Selectivity ratio in experiment [1] stood at 2. The compound `COC(=O)C1C2CCC(CC1c1ccc(F)cc1)O2` (stereo in doubt; 6b (O-895)) [listing 2 of 2 here] came in with an IC50 in experiment [2] of 2580 nM. Same read-out and setting: as for `COC(=O)C1C2CCC(CC1c1ccc(Cl)c(Cl)c1)O2` (stereo in doubt; form 4) [listing 2 of 2 here], the figure is 4.67 nM; as for `COC(=O)C1C2CCC(CC1c1ccc(Cl)c(Cl)c1)O2` (stereo in doubt; 6f (O-914)) [listing 2 of 2 here], 6.52 nM.

`COC(=O)C1C2CCC(CC1c1ccc(Br)cc1)O2` (stereo in doubt; form 2) [listing 2 of 2 here]: the Selectivity ratio in experiment [1] came to 31.

In experiment [2], `COC(=O)C1C2CCC(CC1c1ccc(I)cc1)O2` (stereo in doubt; 7e (O-949)) [listing 2 of 2 here] yielded an IC50 of 72 nM.
